The source of these data is patent publication US20250213555A1, “SUBSTITUTED TETRAHYDROFURAN ANALOGS AS MODULATORS OF SODIUM CHANNELS” (VERTEX PHARMACEUTICALS INCORPORATED, priority 2021, published 2025).

Sequence of human Nav 1.8 (Q9Y5Y9 126-399 limits assumed): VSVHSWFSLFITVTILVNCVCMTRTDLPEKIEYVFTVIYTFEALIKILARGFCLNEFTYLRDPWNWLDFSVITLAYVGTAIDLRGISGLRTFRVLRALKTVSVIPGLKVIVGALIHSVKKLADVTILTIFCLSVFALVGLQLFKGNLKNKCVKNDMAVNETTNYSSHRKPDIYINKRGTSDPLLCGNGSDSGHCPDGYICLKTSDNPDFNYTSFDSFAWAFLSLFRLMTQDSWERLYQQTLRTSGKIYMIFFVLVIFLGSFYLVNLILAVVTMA
Sequence of human Nav 1.8 (Q9Y5Y9 660-890 limits assumed): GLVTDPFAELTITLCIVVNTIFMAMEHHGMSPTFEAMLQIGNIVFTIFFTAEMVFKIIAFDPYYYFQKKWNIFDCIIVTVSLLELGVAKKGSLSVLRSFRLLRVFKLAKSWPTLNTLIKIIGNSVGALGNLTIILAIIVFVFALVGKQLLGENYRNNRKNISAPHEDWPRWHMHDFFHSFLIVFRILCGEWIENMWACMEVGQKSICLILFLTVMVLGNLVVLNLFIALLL
Sequence of human Nav 1.8 (Q9Y5Y9 1148-1722 limits assumed): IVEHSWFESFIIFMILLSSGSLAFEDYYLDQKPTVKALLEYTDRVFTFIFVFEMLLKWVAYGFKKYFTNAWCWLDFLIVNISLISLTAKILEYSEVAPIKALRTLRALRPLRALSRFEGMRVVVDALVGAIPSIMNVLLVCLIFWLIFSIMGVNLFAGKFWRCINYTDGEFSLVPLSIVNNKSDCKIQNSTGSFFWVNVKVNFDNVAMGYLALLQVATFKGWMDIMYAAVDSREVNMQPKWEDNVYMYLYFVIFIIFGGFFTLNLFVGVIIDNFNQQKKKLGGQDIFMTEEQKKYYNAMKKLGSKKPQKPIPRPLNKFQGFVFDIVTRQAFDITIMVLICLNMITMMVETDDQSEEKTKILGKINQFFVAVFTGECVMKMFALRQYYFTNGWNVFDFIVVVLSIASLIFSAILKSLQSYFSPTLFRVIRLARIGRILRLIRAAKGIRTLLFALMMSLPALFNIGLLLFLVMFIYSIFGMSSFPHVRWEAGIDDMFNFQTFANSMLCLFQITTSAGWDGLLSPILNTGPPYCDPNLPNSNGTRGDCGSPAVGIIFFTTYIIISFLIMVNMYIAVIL

In this assay the target is human Nav 1.8 (Homo sapiens, UniProt Q9Y5Y9). In words: E-VIPR assay detecting and measuring Nav inhibition properties. It is filed as cell-based. The note with it: HEK cells expressing a truncated form of human Nav 1.8; compound numbers without "*" (not marked as run in the presence of human serum); read-out: measured IC50 value in the E-VIPR Assay. The method, boiled down:
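Nav inhibition was read by E-VIPR: cells were electrically stimulated while coumarin/oxonol FRET emissions were recorded. Cells were HEK expressing a truncated human Nav 1.8 and co-transduced with KIR2.1, and were assayed in 25% final human serum.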
As to `CC1C(c2ccc(F)c(F)c2OCC2CCC2O)C(C(=O)Nc2ccnc(C(N)=O)c2)OC1(C)C(F)(F)F` [Compound 98, rel-4-((2R*,3S*,4S*,5R*)-3-(3,4-difluoro-2-(((15,2S)-2-hydroxycyclobutyl)methoxy)phenyl)-4,5-dimethyl-5-(trifluoromethyl)tetrahydrofuran-2-carboxamido)picolinamide], the IC50 is 10 to 100 nM. For `C[C@H]1[C@@H](c2ccc(F)c(F)c2OCCN2CCC3(COC3)C2)[C@H](C(=O)Nc2ccnc(C(N)=O)c2)O[C@@]1(C)C(F)(F)F` [Compound 127, 4-((2R,3S,4S,5R)-3-(2-(2-(2-oxa-6-azaspiro[3.4]octan-6-yl)ethoxy)-3,4-difluorophenyl)-4,5-dimethyl-5-(trifluoromethyl)tetrahydrofuran-2-carboxamido)picolinamide], the IC50 is < 10 nM. Consider `C[C@H]1[C@@H](c2ccc(F)c(F)c2OCc2cc[nH]n2)[C@H](C(=O)Nc2ccnc(C(N)=O)c2)O[C@@]1(C)C(F)(F)F` [Compound 83, 4-((2R,3S,4S,5R)-3-(2-((1H-pyrazol-3-yl)methoxy)-3,4-difluorophenyl)-4,5-dimethyl-5-(trifluoromethyl)tetrahydrofuran-2-carboxamido)picolinamide], for which the IC50 is < 10 nM. On to `COc1c([C@H]2[C@H](C(=O)Nc3ccnc(C(=O)NC4CN(C)C4)c3)O[C@@](C)(C(F)(F)F)[C@H]2C)ccc(F)c1F` [Compound 275, 4-((2R,3S,4S,5R)-3-(3,4-difluoro-2-methoxyphenyl)-4,5-dimethyl-5-(trifluoromethyl)tetrahydrofuran-2-carboxamido)-N-(1-methylazetidin-3-yl)picolinamide], for which the IC50 lay within 10 to 100 nM. Consider `COc1c([C@H]2[C@H](C(=O)Nc3ccnc(C(=O)N4C[C@@H](N)[C@@H](OC)C4)c3)O[C@@](C)(C(F)(F)F)[C@H]2C)ccc(F)c1F` [Compound 261, (2R,3S,4S,5R)-N-(2-((3R,4S)-3-amino-4-methoxypyrrolidine-1-carbonyl)pyridin-4-yl)-3-(3,4-difluoro-2-methoxyphenyl)-4,5-dimethyl-5-(trifluoromethyl)tetrahydrofuran-2-carboxamide], for which the IC50 was < 10 nM. Next, `COc1c([C@H]2[C@H](C(=O)Nc3ccnc(C(=O)N4CCNC[C@@H]4C)c3)O[C@@](C)(C(F)(F)F)[C@H]2C)ccc(F)c1F` [Compound 232, (2R,3S,4S,5R)-3-(3,4-difluoro-2-methoxyphenyl)-4,5-dimethyl-N-(2-((S)-2-methylpiperazine-1-carbonyl)pyridin-4-yl)-5-(trifluoromethyl)tetrahydrofuran-2-carboxamide]: < 10 nM. Turning to `C[C@H]1[C@@H](c2ccc(F)c(F)c2OCCN2CC3(CCO3)C2)[C@H](C(=O)Nc2ccnc(C(N)=O)c2)O[C@@]1(C)C(F)(F)F` [Compound 57, 4-((2R,3S,4S,5R)-3-(2-(2-(1-oxa-6-azaspiro[3.3]heptan-6-yl)ethoxy)-3,4-difluorophenyl)-4,5-dimethyl-5-(trifluoromethyl)tetrahydrofuran-2-carboxamido)picolinamide], the IC50 is < 10 nM.

Consider `C[C@H]1[C@@H](c2ccc(F)c(F)c2OCCO)[C@H](C(=O)Nc2ccnc(C(N)=O)c2)O[C@@]1(C)C(F)(F)F` [Compound 5, 4-((2R,3S,4S,5R)-3-(3,4-difluoro-2-(2-hydroxyethoxy)phenyl)-4,5-dimethyl-5-(trifluoromethyl)tetrahydrofuran-2-carboxamido) picolinamide], for which the IC50 was < 10 nM. For the compound `COc1c([C@H]2[C@H](C(=O)Nc3ccnc(C(=O)N[C@H]4C[C@@H](C)CN(C)C4)c3)O[C@@](C)(C(F)(F)F)[C@H]2C)ccc(F)c1F` [Compound 290, 4-((2R,3S,4S,5R)-3-(3,4-difluoro-2-methoxyphenyl)-4,5-dimethyl-5-(trifluoromethyl)tetrahydrofuran-2-carboxamido)-N-((3S,5R)-1,5-dimethylpiperidin-3-yl)picolinamide], the IC50 lay within 100 to 1000 nM.

As to `COc1c([C@H]2[C@H](C(=O)Nc3ccnc(C(=O)N4CCN(C)C[C@H]4C)c3)O[C@@](C)(C(F)(F)F)[C@H]2C)ccc(F)c1F` [Compound 274, (2R,3S,4S,5R)-3-(3,4-difluoro-2-methoxyphenyl)-N-(2-((R)-2,4-dimethylpiperazine-1-carbonyl)pyridin-4-yl)-4,5-dimethyl-5-(trifluoromethyl)tetrahydrofuran-2-carboxamide], the 50% inhibitory concentration (IC50) is < 10 nM. Take `CO[C@H]1CCN(CCOc2c([C@H]3[C@H](C(=O)Nc4ccnc(C(N)=O)c4)O[C@@](C)(C(F)(F)F)[C@H]3C)ccc(F)c2F)C1` [Compound 129, 4-((2R,3S,4S,5R)-3-(3,4-difluoro-2-(2-((S)-3-methoxypyrrolidin-1-yl)ethoxy)phenyl)-4,5-dimethyl-5-(trifluoromethyl)tetrahydrofuran-2-carboxamido)picolinamide]: the IC50 lay within 10 to 100 nM. To `C[C@H]1[C@@H](c2ccc(F)c(F)c2OCC2(F)COC2)[C@H](C(=O)Nc2ccnc(C(N)=O)c2)O[C@@]1(C)C(F)(F)F` [Compound 64, 4-((2R,3S,4S,5R)-3-(3,4-difluoro-2-((3-fluorooxetan-3-yl)methoxy)phenyl)-4,5-dimethyl-5-(trifluoromethyl)tetrahydrofuran-2-carboxamido)picolinamide] belongs < 10 nM; to `COc1c([C@H]2[C@H](C(=O)Nc3ccnc(C(=O)N4CCN(C)[C@@H]5C[C@@H]54)c3)O[C@@](C)(C(F)(F)F)[C@H]2C)ccc(F)c1F` (single isomer, unassigned) [Compound 295, rel-(2R*,3S*,4S*,5R*)-3-(3,4-difluoro-2-methoxyphenyl)-4,5-dimethyl-N-(2-((1S,6R)-5-methyl-2,5-diazabicyclo[4.1.0]heptane-2-carbonyl)pyridin-4-yl)-5-(trifluoromethyl)tetrahydrofuran-2-carboxamide], < 10 nM. As to `CN[C@H]1CN(C(=O)c2cc(NC(=O)[C@@H]3O[C@@](C)(C(F)(F)F)[C@@H](C)[C@H]3c3ccc(F)c(F)c3OC)ccn2)C[C@@H]1OC` [Compound 256, (2R,3S,4S,5R)-3-(3,4-difluoro-2-methoxyphenyl)-N-(2-((3S,4S)-3-methoxy-4-(methylamino)pyrrolidine-1-carbonyl)pyridin-4-yl)-4,5-dimethyl-5-(trifluoromethyl)tetrahydrofuran-2-carboxamide], the IC50 is < 10 nM. Next, `C[C@H]1[C@@H](c2ccc(F)c(F)c2OCC2(C)COC2)[C@H](C(=O)Nc2ccnc(C(N)=O)c2)O[C@@]1(C)C(F)(F)F` [Compound 63, 4-((2R,3S,4S,5R)-3-(3,4-difluoro-2-((3-methyloxetan-3-yl)methoxy)phenyl)-4,5-dimethyl-5-(trifluoromethyl)tetrahydrofuran-2-carboxamido)picolinamide]: 10 to 100 nM; `COc1c([C@@H]2[C@@H](C)[C@@](C)(C(F)(F)F)O[C@H]2C(=O)Nc2ccnc(C(N)=O)c2)ccc(OCC2CC2)c1F` (single isomer, unassigned) [Compound 142]: ≥ 1000 nM. As for `CC1C(c2ccc(F)c(F)c2OC2CC(O)C2)C(C(=O)Nc2ccnc(C(N)=O)c2)OC1(C)C(F)(F)F` [Compound 166, 4-((2R,3S,4S,5R)-3-(3,4-difluoro-2-((1s,3R)-3-hydroxycyclobutoxy)phenyl)-4,5-dimethyl-5-(trifluoromethyl)tetrahydrofuran-2-carboxamido)picolinamide], the IC50 was < 10 nM. For `COc1c([C@H]2[C@H](C(=O)Nc3ccnc(C(=O)N(C)O)c3)O[C@@](C)(C(F)(F)F)[C@H]2C)ccc(F)c1F` [Compound 217, 4-((2R,3S,4S,5R)-3-(3,4-difluoro-2-methoxyphenyl)-4,5-dimethyl-5-(trifluoromethyl)tetrahydrofuran-2-carboxamido)-N-hydroxy-N-methylpicolinamide], the IC50 was < 10 nM.

`C[C@H]1[C@@H](c2ccc(F)c(F)c2OCC(CO)CO)[C@H](C(=O)Nc2ccnc(C(N)=O)c2)O[C@@]1(C)C(F)(F)F` [Compound 91, 4-((2R,3S,4S,5R)-3-(3,4-difluoro-2-(3-hydroxy-2-(hydroxymethyl)propoxy)phenyl)-4,5-dimethyl-5-(trifluoromethyl)tetrahydrofuran-2-carboxamido)picolinamide]: the IC50 was 100 to 1000 nM. To `COc1c([C@H]2[C@H](C(=O)Nc3ccnc(C(=O)N4CCN(C)C[C@@H]4C)c3)O[C@@](C)(C(F)(F)F)[C@H]2C)ccc(F)c1F` [Compound 272, (2R,3S,4S,5R)-3-(3,4-difluoro-2-methoxyphenyl)-N-(2-((S)-2,4-dimethylpiperazine-1-carbonyl)pyridin-4-yl)-4,5-dimethyl-5-(trifluoromethyl)tetrahydrofuran-2-carboxamide] belongs 10 to 100 nM; to `C[C@@H]1CN(CCOc2c([C@H]3[C@H](C(=O)Nc4ccnc(C(N)=O)c4)O[C@@](C)(C(F)(F)F)[C@H]3C)ccc(F)c2F)CCO1` [Compound 109, 4-((2R,3S,4S,5R)-3-(3,4-difluoro-2-(2-((R)-2-methylmorpholino)ethoxy)phenyl)-4,5-dimethyl-5-(trifluoromethyl)tetrahydrofuran-2-carboxamido)picolinamide], < 10 nM. On to `C[C@H]1[C@@H](c2ccc(F)c(F)c2OC[C@H]2C[C@](O)(C(F)(F)F)C2)[C@H](C(=O)Nc2ccnc(C(N)=O)c2)O[C@@]1(C)C(F)(F)F` [Compound 7, 4-((2R,3S,4S,5R)-3-(3,4-difluoro-2-(((1s,3R)-3-hydroxy-3-(trifluoromethyl)cyclobutyl)methoxy)phenyl)-4,5-dimethyl-5-(trifluoromethyl)tetrahydrofuran-2-carboxamido)picolinamide], for which the IC50 was 10 to 100 nM. In the case of `COc1c([C@H]2[C@H](C(=O)Nc3ccnc(C(=O)NC[C@]4(C)CCCN4)c3)O[C@@](C)(C(F)(F)F)[C@H]2C)ccc(F)c1F` [Compound 233, 4-((2R,3S,4S,5R)-3-(3,4-difluoro-2-methoxyphenyl)-4,5-dimethyl-5-(trifluoromethyl)tetrahydrofuran-2-carboxamido)-N-(((S)-2-methylpyrrolidin-2-yl)methyl)picolinamide], the IC50 was 10 to 100 nM.

As usually defined, the IC50 is the point on the concentration scale where inhibition reaches its midpoint.
